Experimental data reported in EP0640341A1, “Sustained release pharmaceutical composition and process for producing same” (priority 1993, dated 1995).

How the values were obtained:
[1] = Solubility in Japanese pharmacopoeia test liquids; format: physicochemical
Source text: For example, the above pyrimidinedione derivative is a basic drug, and has general characteristics that it is easily soluble on an acid side of a pH but very little soluble on a neutral side or an alkaline side. That is to say, in the digestive organs, the pyrimidinedione derivative is easily dissolved and released in the stomach owing to an acid therein, but the dissolution and the release of the pyrimidinedione derivative deteriorate in the intestines because the intestines are a neutral or an alkaline state. Furthermore, the deterioration of the solubility of the pyrimidinedione derivative with the increase of the pH is remarkable.

[2] = Oral administration test of the drug, concentration in blood
Source text: For example, in Example 18 of Japanese Patent Application Laid-open No. 173873/1991, the pyrimidinedione derivative is sufficiently mixed with lactose and starch, and the resultant mixture is then filled into capsules to manufacture the desired drug. The present inventors actually carried out an oral administration test for the drug.

Cn1c(NCCN(CCO)CCCc2ccc([N+](=O)[O-])cc2)cc(=O)n(C)c1=O [the pyrimidinedione derivative, 1,3-dimethyl-6-{2-{N-(2-hydroxyethyl)-N-[3-(4-nitrophenyl)propyl]amino}ethylamino}-2,4-(1H,3H)-pyrimidinedione]
solubility ([1]; jp test liquid no. 1, Japanese pharmacopoeia test liquid No. 1 (pH = 1.2)): ≥ 1000 mg/mL
solubility ([1]; jp test liquid no. 2, Japanese pharmacopoeia test liquid No. 2 (pH = 6.8)): ≤ 0.1 mg/mL
Tmax [2]: ≤ 30 min
